This is an account of results in patent US20170319256A1, “METHOD OF SELECTIVELY KILLING CANCER CELLS USING LOW-TEMPERATURE PLASMA JET DEVICE AND METHOD OF TREATING TUMORS USING THE SAME” (Dong-A University Research Foundation for Industry-Academy …, priority 2016, published 2017).

For one experiment, the system named is A549 and SK-MEL2 cells. Put plainly: γH2AX phosphorylation immunofluorescence (marker for DNA breaks). Particulars: FIG. 4A. It is filed as cell-based, human. Here is the method: (§1) Cells were treated using a previously reported plasma jet device. A typical operating condition of the pulsed-dc plasma jet has the applied voltage 1.6 kV, repetition frequency 50 kHz, and duty ratio 10%. The working gas (helium) and reactive gas (oxygen) flow rate were kept constant at 500 and 5 SCCM (SCCM denotes cubic centimeter per minute at standard temperature and pressure), respectively. The cells were cultured on 12-mm microscope cover glass coated with gelatin from porcine skin (Sigma-Aldrich) and were treated with helium generated-NTP with or without the flow of oxygen gas. The exposed cover glass was then transferred to 12-well plates containing fresh medium and incubated at 37° C. in a humidified incubator supplemented with 5% CO2. If necessary, the cells were treated with 5 or 10 μM of specific inhibitors targeting ATR (ETP46464), ATM (KU55933), DNA-PK (NU7026), or PARP1 (AZD2281) for 1 h before plasma treatment and kept until cell harvest. […]
(§2) For immunofluorescence staining, cells were fixed with 4% formaldehyde (Sigma-Aldrich) for 10 min at room temperature and permeabilized with 0.5% Triton™ X-100 (Bio Basic). […] The images were captured using a fluorescence microscope (Nikon) equipped with the NIS-Elements 4.0 Nikon imaging software. For quantification, a minimum of 500 cells were analyzed from each of three independent experiments.

The test system of the next experiment is A549 and SKMEL2 cells. Put plainly: CHK1 phosphorylation immunofluorescence after kinase inhibitor pretreatment and NTP or NTPO. Particulars: inhibitor pretreatment (5 or 10 μM, 1 h before plasma), followed by NTP or NTPO; FIG. 3A. It is filed as cell-based, human. On the procedure: as §1, §2

As to `O=C(c1cc(Cc2n[nH]c(=O)c3ccccc23)ccc1F)N1CCN(C(=O)C2CC2)CC1` [AZD2281, olaparib], the γH2AX phosphorylation entry in the experiment on A549 and SK-MEL2 cells (PARP-1 inhibitor plus treatment of NTP or NTPO) is on record as “significantly increased”; with A549 and SK-MEL2 cells (PARP-1 inhibitor, gas control) it was “measured even in the case of gas control”.

`CC(C)(C#N)c1ccc(N2C(=O)OCc3cnc4ccc(-c5cnc6ccccc6c5)cc4c32)cc1` [ETP 46464]: the CHK1 phosphorylation result in the experiment on A549 and SKMEL2 cells is recorded as “phosphorylation was not shown”.
